# Experimental data as given in PMC6804243, “Small-Molecule Inhibition of UBE2T/FANCL-Mediated Ubiquitylation in the Fanconi Anemia Pathway” (ACS Chemical Biology, 2019).
# Key:
# [1] = system: mUb-H2A and total protein ubiquitylation; test: Immunoblot of widespread cellular ubiquitylation (mUb-H2A, FK2 antibody); format: cell-based; settings: U2OS; CU1 200 μM or CU2 500 μM; with or without HU 2.5 mM, 8 h
# Procedure: Figure 3 Cell-based assays with CU1 and CU2: (a) Western blot showing that the formation of mUb-FANCD2(*), in response to HU treatment (2.5 mM, 8 h), is impaired in U2OS cells in the presence of CU1 (200 μM) or CU2 (500 μM). Ratio = mUb-FANCD2/FANCD2 (normalized to DMSO control). mUb-FANCD2 was resolved on a separate gel. PARP1 was used as a loading control for each gel, as well as to assess apoptosis. (b) Quantification of the reduction in mUb-FANCD2, in response to HU treatment (2.5 mM, 8 h) in the presence of CU1 (200 μM) or CU2 (500 μM). Mean calculated from three independent experiments. […] TEXT PRINTED IN THE PICTURE: (d) DMSO: S-phase 42.7; G1 29.2; G2-M 27.8 | (d) HU: S-phase 0.24; G1 72.4; G2-M 22.9 | (d) CU1: S-phase 43.4; G1 26.8; G2-M 29.1 | (d) CU2: S-phase 39.7; G1 31.9; G2-M 28.2 DOUBTS OF THE COPYIST ABOUT THIS PICTURE: Panel d print is small, so these digits are best readings: DMSO G2-M 27.8 (8 or 6); CU1 G1 26.8 (6 or 8); CU2 S-phase 39.7 (9 or 8); CU2 G2-M 28.2 (8 or 6) / Panels a and c: the lane ratios printed under the western blots (a: 1.0, 0.64, 0.40; c: 1.0/0.65, 1.0/0.63, 1.0/0.53) were left out because they belong to blots and the picture prints no measure for them […]
# To investigate if the compounds were affecting more widespread ubiquitylation events in the cell, the monoubiquitylation status of histone H2A was assessed (mUb-H2A; Figure 3a). […]
# U2OS cells = test: IncuCyte cell proliferation assay; format: cell-based
# Procedure: Figure 4 Further cell-based assays with CU1 and CU2: (a, b) Representative immunofluorescence images of U2OS cells treated with HU (2.5 mM, 8 h) or cisplatin (10 μM, 8 h) in the presence or absence of CU1 (200 μM) or CU2 (500 μM). (c) Quantification of the number of FANCD2 foci in cells treated as in panels (a) and (b). Data accumulated over three independent experiments, each consisting of three technical replicas. (d) IncuCyte analysis of U2OS cells treated with or without carboplatin (15 μM) and CU2 (250 μM). Mean calculated from three wells, four images per well. (HU = DMSO + HU, cisplatin = DMSO + cisplatin).
# Finally, to investigate if CU1 and CU2 could sensitize cells to a more clinically relevant chemotherapeutic agent, quantitative live cell analyses were performed using the IncuCyte platform. As the FA pathway is involved in the repair of ICLs, cells were treated with the ICL-inducing chemotherapeutic drug, carboplatin. For this experiment, U2OS cells were seeded at a relatively low (<10%) density and preincubated with CU1 or CU2 for 1 h. Carboplatin was then added to the cells and images were taken every 6 h for 8 days in order to monitor growth and proliferation of the cells.
# Reaction mixtures were incubated for the indicated time at 37 °C and stopped by the addition of 2X reducing SDS -PAGE sample buffer, separated on NuPAGE Novex 4 –12% Bis/Tris gradient gels (Invitrogen) and visualized by Western blotting using the indicated antibodies (Table S3).
# Cell culture. U2OS cells were cultured at 37 °C in a humidified atmosphere and 5% (v/v) CO2 in Dulbecco's Modified Eagle Medium (DMEM; Sigma-Aldrich) supplemented with 10% (v/v) fetal bovine serum (FBS), 100 units/ml of penicillin, […] of streptomycin and 292 μg/mL L-glutamine.
# Cell extract preparation and immunoblotting. U2OS cells were lysed in buffer containing 50 mM Tris-HCl pH 7.5, 2% SDS, 10 mM NEM, cocktail protease inhibitor (Roche) and phosphatase inhibitor cocktail followed by sonication 100 µg of extracts were boiled for 5 mins at 95 °C in 5X loading buffer and loaded onto NuPAGE Novex 4–12% Bis/Tris gradient gels
# (Invitrogen), or NuPAGE Novex 3-8% Tris/Acetate gradient gels (Invitrogen) for detection of mUb-FANCD2. After separation the gels were transferred to PVDF and the membranes were blocked with Tris-buffered saline containing 0.1% (v/v) Tween-20 (TBST) and 5% (v/v) bovine serum albumin (BSA) and incubated with the indicated primary and secondary antibodies. mUb-FANCD2 intensity was quantified using Image Studio (LI-COR).
# IncuCyte cell proliferation assays. 2000 U2OS cells were seeded per well in 96-well plates and treated with compounds 24 hours afterwards. After 1 hour of compound treatment, 15 µM carboplatin (Sigma-Aldrich) was added and the cells were cultured in an incubator with an IncuCyte microscopy -platform (Essen BioScience). Phase -contrast images were acquired every 6 hours for 8 days until DMSO-carboplatin treated cells reached >80% confluence. Cell proliferation was monitored as the occupied area (% confluence) of cell images over time and calculated as percentage confluence over time. Cell confluency percentages were calculated using the integrated Cell Player software and results were analysed with Prism 6 (GraphPad Software).
# UBE2T = test: Binding to UBE2T by differential scanning fluorimetry, ligand-observed NMR, native mass spectrometry; settings: native mass spectrometry (unpublished data)
Compound,total protein ubiquitylation (FK2 antibody) [1],combined effect with carboplatin on cell growth (U2OS cells; 50 μM CU1 with 15 μM carboplatin),concentrations that strongly inhibit cell growth (U2OS cells; IncuCyte),binding to UBE2T (UBE2T),"confluency (U2OS cells; 250 μM CU2 combined with 15 μM carboplatin, after 8 days)",effect on cell growth (U2OS cells; CU2 250 μM alone),"confluency (U2OS cells; CU2 250 μM alone, after 6 days)","effect on cells upon longer cellular exposures (U2OS cells; CU2 500 μM, IncuCyte, up to 8 days)"
NCCN1C(=O)CC[C@H]2CN(Cc3cccc(-c4ccco4)c3)CC[C@H]21 [CU1],do not affect total protein ubiquitylation,far less pronounced than that observed for CU2,> 50 µM,,,,,
CCN1CCN(c2cc(C)nc3nc(CN4CCCCC4C)nn23)CC1 (stereo not drawn) [CU2],do not affect total protein ubiquitylation,,,did not observe binding,< 50%,minimal effect on cell growth,100%,cytotoxic/cytostatic
